The values below come from patent US12459940B2, “Oxazole compound as multi-targeted inhibitor of IRAK4 and BTK” (SHANGHAI FOSUN PHARMACEUTICAL INDUSTRIAL DEVELOPMENT CO., …, priority 2019, dated 2025).

Test [1] deals with T1, human IRAK4 (Homo sapiens, UniProt Q9NWZ3).
T1 construct: purchased Reaction Biology Corp
T1 sequence (Q9NWZ3 1-460): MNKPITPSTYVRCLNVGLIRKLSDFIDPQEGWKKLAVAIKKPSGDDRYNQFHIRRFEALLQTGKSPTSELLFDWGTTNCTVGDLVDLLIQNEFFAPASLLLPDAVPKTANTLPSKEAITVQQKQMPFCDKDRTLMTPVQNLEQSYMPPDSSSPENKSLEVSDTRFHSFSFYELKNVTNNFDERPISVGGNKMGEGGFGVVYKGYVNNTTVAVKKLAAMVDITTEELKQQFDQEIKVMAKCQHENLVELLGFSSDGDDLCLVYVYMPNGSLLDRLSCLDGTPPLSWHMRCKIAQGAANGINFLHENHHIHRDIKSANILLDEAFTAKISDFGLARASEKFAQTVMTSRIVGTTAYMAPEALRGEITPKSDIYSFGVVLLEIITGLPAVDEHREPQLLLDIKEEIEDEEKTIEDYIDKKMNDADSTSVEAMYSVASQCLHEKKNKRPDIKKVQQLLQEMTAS
The experiment in a line: In vitro IRAK4 kinase activity, 33P isotope-labeled kinase activity assay (Reaction Biology Corp). It is filed as biochemical. The protocol:
The IC50 values were determined using ^33P isotope-labeled kinase activity assay (Reaction Biology Corp) to evaluate the inhibitory ability of the tested compounds on human IRAK4.
(§1) Buffer conditions: 20 mM Hepes (pH 7.5), 10 mM MgCl2, 1 mM EGTA, 0.02% Brij35, 0.02 mg/mL BSA, 0.1 mM Na3VO4, 2 mM DTT, 1% DMSO.
Test procedure: At room temperature, the tested compound was dissolved in DMSO to prepare a 10 mM solution for later use. The substrate was dissolved in a newly prepared buffer solution, and the tested IRAK4 kinase was added thereto and mixed evenly. The DMSO solution dissolved with the tested compound was added to the above reaction mixture mixed evenly using acoustic technique (Echo 550). After incubation for 15 minutes, ^33P-ATP was added to initiate the reaction.

For test [2], the target named is T2, human BTK (Homo sapiens, UniProt Q06187).
T2 construct: purchased Reaction Biology Corp
T2 sequence (Q06187 whole entry): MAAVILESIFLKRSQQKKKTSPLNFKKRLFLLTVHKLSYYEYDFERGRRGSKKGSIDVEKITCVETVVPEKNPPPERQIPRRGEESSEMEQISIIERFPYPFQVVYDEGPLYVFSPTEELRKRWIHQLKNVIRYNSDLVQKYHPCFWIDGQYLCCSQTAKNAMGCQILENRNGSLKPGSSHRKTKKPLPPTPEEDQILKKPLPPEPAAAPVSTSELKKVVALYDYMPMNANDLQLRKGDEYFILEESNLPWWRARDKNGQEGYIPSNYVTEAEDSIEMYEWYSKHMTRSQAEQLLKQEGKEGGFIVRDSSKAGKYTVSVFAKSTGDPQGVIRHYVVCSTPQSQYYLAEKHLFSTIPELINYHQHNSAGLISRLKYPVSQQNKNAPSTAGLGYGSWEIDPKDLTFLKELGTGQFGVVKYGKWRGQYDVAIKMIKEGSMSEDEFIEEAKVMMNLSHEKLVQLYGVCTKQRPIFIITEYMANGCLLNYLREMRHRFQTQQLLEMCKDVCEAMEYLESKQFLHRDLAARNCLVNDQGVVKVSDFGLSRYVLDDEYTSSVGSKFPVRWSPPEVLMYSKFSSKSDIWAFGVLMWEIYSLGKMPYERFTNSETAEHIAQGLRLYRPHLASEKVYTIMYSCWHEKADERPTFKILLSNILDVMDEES
The experiment in a line: In vitro BTK kinase activity, 33P isotope-labeled kinase activity assay (Reaction Biology Corp). It is filed as biochemical. Particulars: 33P-ATP, 2 hours at room temperature. The protocol:
The IC50 values were determined using ^33P isotope-labeled kinase activity assay (Reaction Biology Corp) to evaluate the inhibitory ability of the tested compounds on human BTK.
as §1
Test procedure: At room temperature, the tested compound was dissolved in DMSO to prepare a 10 mM solution for later use. The substrate was dissolved in a newly prepared buffer solution, and the tested BTK kinase was added thereto and mixed evenly. The compound dissolved in DMSO was added to the kinase reaction mixture through Echo 550 (Acoustic technology; Nanoliter range). After incubation for 20 minutes at room temperature, ^33P-ATP was added to initiate the reaction. The reaction was carried out at room temperature for 2 hours, and the radioactivity of the reaction liquid point was detected by filtration-binding method with P81 ion exchange filter paper. The kinase activity data were expressed by comparing the kinase activity of the group containing the tested compound with the kinase activity of the blank group (only containing DMSO), and the IC50 value was obtained by curve fitting by Prism4 software (GraphPad), the experimental results are shown in Table 10.

[3] abbreviates: 33P-ATP, 120 minutes at room temperature, read-out: IRAK4/IC50.

Read-outs that look alike come from different tables or passages of the source.

The compound `Cc1cc(-c2nc(C(=O)Nc3cn4cc(CCC(C)(C)O)nc4cc3N3CCOCC3)co2)ccn1` [WX002] registered an IC50 in test [1] of 1.2 nM.
Take `Cc1cc(-c2nc(C(=O)Nc3cn4cc(CCC(C)(C)O)nc4cc3N3CCC(C)(C)CC3)co2)ccn1` [WX008]: the IC50 in test [2] amounted to 4.6 nM; in test [1] (setting [3]), 2.1 nM.
Turning to `Cc1cc(-c2nc(C(=O)Nc3cn4cc(CCC(C)(C)O)nc4cc3N3CCC(F)(F)CC3)co2)ccn1` [WX009], the IC50 in test [2] stood at 46 nM; in test [1] it was 0.7 nM.
Consider `CC(C)(O)CCc1cn2cc(NC(=O)c3coc(-c4ccnc(C5CC5)c4)n3)c(N3CCCCC3)cc2n1` [WX012], for which the IC50 in test [2] turned out to be 6.9 nM; in test [1] (setting [3]), 1 nM.
The like results for `Cc1cc(-c2nc(C(=O)Nc3cn4cc(CCC(C)(C)O)nc4cc3N3CCC(CO)CC3)co2)ccn1` [WX013] were, in that order, 1.4 nM and 0.2 nM.
`Cc1cc(-c2nc(C(=O)Nc3cn4cc(CCC(C)(C)O)nc4cc3N3CCC(CN)CC3)co2)ccn1` [WX014]: the IC50 in test [2] turned out to be 25.7 nM; in test [1], 0.9 nM.
For `CC(C)(O)CCc1cn2cc(NC(=O)c3coc(-c4ccnc(C#N)c4)n3)c(N3CCCCC3)cc2n1` [WX015] the same measures were 6.4 nM and 0.4 nM.
For `Cc1cc(-c2nc(C(=O)Nc3cn4cc(CCC(=O)O)nc4cc3N3CCC(CO)CC3)co2)ccn1` [WX020] the same measures were 8.5 nM and 0.5 nM.
For `Cc1cc(-c2nc(C(=O)Nc3cn4cc(CCC(C)(C)O)nc4cc3C3CCCCC3)co2)ccn1` [WX022], the IC50 in test [2] is 43.1 nM; in test [1], 0.7 nM.
As to `Cc1cc(-c2nc(C(=O)Nc3cn4cc(CCC(=O)O)nc4cc3-c3cccnc3)co2)ccn1` [WX023], the IC50 in test [1] (setting [3]) was determined as 8.4 nM.
In the case of `Cc1cc(-c2nc(C(=O)Nc3cn4cc(CCC(C)(C)O)nc4cc3-c3ccccc3C(N)=O)co2)ccn1` [WX027], the IC50 in test [1] (setting [3]) is 11 nM.
On to `[2H]c1c([2H])c([2H])c(-c2cc3nc(CCC(C)(C)O)cn3cc2NC(=O)c2coc(-c3ccnc(C)c3)n2)c([2H])c1[2H]` [WX033], for which the IC50 in test [2] came to 20.2 nM; in test [1] (setting [3]), 1.6 nM.
For the compound `Cc1cc(-c2nc(C(=O)Nc3cn4cc(CCC(=O)O)nc4cc3-c3ccccc3)co2)ccn1` [WX039], the IC50 in test [2] was determined as 29 nM; in test [1] (setting [3]) it was 1 nM.
For the compound `Cc1cc(-c2nc(C(=O)Nc3cn4cc(CCS(C)(=O)=O)nc4cc3N3CCCCC3)co2)ccn1` [WX042], the IC50 in test [2] came to 3.8 nM.
Regarding `CC(C)(O)CCc1cn2cc(NC(=O)c3coc(-c4ccnc(C(N)=O)c4)n3)c(N3CCCCC3)cc2n1` [WX044], in test [1] (setting [3]), the IC50 was 1.9 nM.
Turning to `Cc1cc(-c2nc(C(=O)Nc3cn4cc(CCC(C)(C)O)nc4cc3N3CCC(C(=O)O)CC3)co2)ccn1` [WX046], the IC50 in test [2] was 43.1 nM; in test [1] (setting [3]), 2.5 nM.
